Key:
Test in all cases: relative viability (nuclei count vs DMSO), 5 days (fraction); higher = more cells survive
[1] = compound: C1CNCCC1C2=CC(=NN2)C3=CC=NC=C3 + COc1cc2c(Oc3ccc(NC(=O)C4(C(=O)Nc5ccc(F)cc5)CC4)cc3F)ccnc2cc1OCCCN1CCOCC1 [Foretinib] (partner 0.25 µM)
In short: (§1)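 Lung cancer cell lines in 1536-well plates got either a single drug or a fixed anchor-drug dose together with five library-drug doses (not always all listed) in √10 steps, by pin tool, on the day after seeding. Nuclei were counted after 5 days, and relative viability is the treated-to-vehicle ratio of nuclei counts. Values are medians of duplicate plates.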

[2] = compound: C1CNCCC1C2=CC(=NN2)C3=CC=NC=C3 + CS(=O)(=O)CCNCc1ccc(-c2ccc3ncnc(Nc4ccc(OCc5cccc(F)c5)c(Cl)c4)c3c2)o1 [Lapatinib] (partner 2 µM)
In short: as §1

[3] = compound: C[C@@H](N)c1ccc(C(=O)Nc2ccnc3[nH]ccc23)cc1 + Cc1cc(Nc2cc(N3CCN(C)CC3)nc(Sc3ccc(NC(=O)C4CC4)cc3)n2)n[nH]1 [Tozasertib] (partner 0.1 µM)
In short: as §1

[4] = compound: C[C@@H](N)c1ccc(C(=O)Nc2ccnc3[nH]ccc23)cc1 + Nc1ncn([C@H]2C[C@H](O)[C@@H](CO)O2)c(=O)n1 [Decitabine] (partner 2 µM)
In short: as §1

| Cell Line | relative viability ([1]; first compound 0.08 µM) | relative viability ([1]; first compound 0.8 µM) | relative viability ([1]; first compound 2.53 µM) | relative viability ([1]; first compound 8 µM) | relative viability ([2]; first compound 0.08 µM) | relative viability ([2]; first compound 0.8 µM) | relative viability ([2]; first compound 2.53 µM) | relative viability ([2]; first compound 8 µM) | relative viability ([3]; first compound 0.04 µM) | relative viability ([3]; first compound 0.1265 µM) | relative viability ([3]; first compound 0.4 µM) | relative viability ([3]; first compound 4 µM) | relative viability ([4]; first compound 0.04 µM) | relative viability ([4]; first compound 0.1265 µM) | relative viability ([4]; first compound 0.4 µM) | relative viability ([4]; first compound 4 µM) | relative viability ([3]; first compound 1.265 µM) | relative viability ([4]; first compound 1.265 µM) |
| --- | --- | --- | --- | --- | --- | --- | --- | --- | --- | --- | --- | --- | --- | --- | --- | --- | --- | --- |
| NCI-H1793 | 0.619 | 0.659 | 0.72 | 0.654 | 0.581 | 0.725 | 0.644 | 0.666 | 0.447 | 0.32 | 0.367 | 0.378 | 0.506 | 0.556 | 0.547 | 0.463 | – | – |
| NCI-H1915 | 1.07 | 1.13 | 1.06 | 1.09 | 0.964 | 1.09 | 1.02 | 0.946 | 0.455 | 0.472 | 0.45 | 0.331 | – | 0.265 | 0.242 | 0.235 | – | – |
| NCI-H1944 | 0.845 | 0.884 | 0.997 | 0.839 | 0.76 | 0.775 | 0.819 | 0.801 | 0.278 | 0.269 | 0.271 | 0.218 | 0.524 | 0.425 | 0.458 | 0.404 | 0.258 | 0.495 |
| NCI-H1975 | 1.07 | 1.03 | 0.962 | 0.932 | 0.905 | 1.08 | 1.05 | 0.83 | 0.8 | 0.712 | 0.729 | 0.642 | 0.365 | 0.381 | 0.426 | 0.28 | 0.696 | 0.356 |
| NCI-H1993 | 0.857 | 0.744 | 0.887 | 0.808 | 0.764 | 0.881 | 0.837 | 0.778 | 0.579 | 0.591 | 0.56 | 0.6 | 0.649 | 0.603 | – | 0.69 | 0.639 | 0.636 |
| NCI-H2009 | 1.2 | 1.19 | 1.17 | 1.19 | 0.998 | 1.01 | 1.07 | 0.888 | 0.736 | 0.704 | 0.643 | 0.544 | 0.318 | 0.391 | 0.355 | 0.351 | 0.623 | 0.346 |
| NCI-H2023 | 0.789 | 0.803 | 1.16 | 1.11 | 0.615 | 0.909 | 1.03 | 0.974 | 0.426 | 0.377 | 0.395 | 0.279 | 0.252 | 0.243 | 0.245 | 0.159 | 0.462 | 0.222 |
| NCI-H2085 | 1.02 | 0.698 | 0.916 | 0.901 | 0.877 | 0.51 | 0.819 | 0.772 | 0.865 | 0.772 | 0.694 | 0.722 | 0.528 | 0.573 | 0.742 | 0.521 | – | 0.561 |
| NCI-H2087 | 0.982 | 1.19 | 1.05 | 1.1 | 1.25 | 1.26 | 0.944 | 0.948 | 0.324 | 0.235 | 0.274 | 0.181 | 0.293 | 0.325 | 0.357 | 0.31 | – | 0.362 |
| NCI-H2126 | 1.18 | 1.31 | 1.23 | 1.29 | 0.738 | 0.752 | 0.812 | 0.741 | 0.92 | 0.885 | 0.877 | 0.854 | 0.56 | 0.583 | 0.596 | 0.572 | 0.921 | 0.599 |
| NCI-H2170 | 0.897 | 0.974 | 1 | 1.01 | 0.247 | 0.28 | 0.269 | 0.291 | 0.719 | 0.663 | 0.784 | 0.636 | 0.497 | 0.467 | 0.489 | 0.429 | 0.699 | 0.517 |
| NCI-H2347 | 1.21 | 0.742 | 0.805 | 1.25 | 0.956 | 0.735 | 0.977 | 0.996 | 0.466 | 0.64 | 0.592 | 0.706 | 0.657 | 0.594 | 0.623 | 0.54 | – | 0.566 |
| NCI-H2405 | 1.05 | 1.04 | 1.11 | 1.05 | 1.12 | 1.01 | 1.12 | 1.16 | 0.858 | 0.832 | 0.759 | 0.35 | – | 0.801 | 0.695 | 0.248 | 0.507 | 0.448 |
| NCI-H3122 | 1.01 | 0.935 | 0.942 | 1.01 | 0.972 | 1.03 | 1.04 | 1.04 | 0.397 | 0.357 | 0.497 | 0.468 | 0.46 | 0.454 | 0.419 | 0.458 | – | 0.458 |
| PC-3 [JPC-3] | 1.01 | 1.07 | 1.1 | 1.04 | 0.426 | 0.446 | 0.499 | 0.471 | 0.892 | 0.839 | 0.955 | 0.816 | 0.776 | 0.807 | 0.857 | 0.625 | 0.967 | 0.824 |
| PC-14 | 0.942 | 1.03 | 1.01 | 0.942 | 0.348 | 0.304 | 0.318 | 0.38 | 0.518 | 0.577 | 0.543 | 0.429 | 0.24 | 0.217 | 0.277 | 0.188 | 0.385 | 0.258 |
| RERF-LC-KJ | 0.871 | 0.942 | 0.837 | 0.924 | 0.784 | 0.835 | 0.843 | 0.85 | 0.643 | 0.453 | 0.525 | 0.422 | 0.762 | 0.764 | 0.75 | 0.634 | 0.513 | 0.806 |
| SK-LU-1 | 0.813 | 0.946 | 0.951 | 0.885 | 0.944 | 0.799 | 0.849 | 0.814 | 0.34 | 0.333 | 0.372 | 0.311 | 0.587 | 0.654 | 0.585 | 0.472 | 0.289 | 0.516 |
| SK-MES-1 | 0.85 | 0.855 | 1.05 | 1 | 0.423 | 0.381 | 0.439 | 0.421 | 0.881 | 0.921 | 0.854 | 0.629 | 0.341 | 0.309 | 0.32 | 0.314 | 0.825 | 0.322 |
| SW 1573 | 0.679 | 0.967 | 0.901 | 1.03 | 1.03 | 1.21 | 1.17 | 1.25 | 0.121 | 0.208 | 0.174 | 0.156 | 0.569 | 0.577 | 0.567 | 0.301 | 0.174 | 0.497 |
